In US5849587A, “Method of inhibiting viral replication in eukaryotic cells and of inducing apoptosis of virally-infected cells” (Cornell Research Foundation, Inc., priority 1995, dated 1998):
Entries after “also recorded” stand apart in the source; their conditions may differ.

Key:
GAPDH mRNA = experiment: Polysomal localization of cellular GAPDH mRNA in PMA-induced ACH-2 cells; type: cell-based, human; settings: 200 μM, FIG. 6
Method: (§1) 142, 431-438 (1989), which is hereby incorporated by reference]. However, vigorous HIV-1 production by ACH-2 cells is induced by addition of the phorbol ester PMA [Pomerantz et al., Cell 61, 1271-1276 (1990) and Michael et al., J. Virol 65, 1291-1303 (1991), which are hereby incorporated by reference]. This system was selected for these experiments. Logarithmically growing ACH-2 cells, suspended at a concentration of 3×10^5 /ml, were incubated with the hypusine inhibitors mimosine and HK-1 at a final concentration of 200 μM. After 8 hours, viral replication was activated by addition of PMA to these cells and to untreated controls (100 ng/ml final PMA concentration). […] An aliquot of each fraction was analyzed by slot blotting, using the pXC-1 genomic ribosomal DNA probe from rat containing the 18S rRNA coding sequence [Rimarachin, Szabo et al., In Vitro 28A, 705-707 (1992), which is hereby incorporated by reference], to determine the location within the gradient of 18S rRNA, i.e., the distribution of polysomes vs. monosomes. […] Following electrophoresis, the radio-labeled PCR products were visualized by autoradiography according to routine techniques, and the band intensities quantified by densitometric analysis and expressed relative to total product per gradient.

[1] = test system: HIV-1 producing ACH-2 cells; experiment: Electron microscopy of PMA-induced ACH-2 cells; type: cell-based, human
Method: FIGS. 11A and B show, representative ultrastructural findings observed in PMA-induced/untreated (FIG. 11A) and PMA-induced/mimosine-treated (FIG. 11B) ACH-2 cells immediately at the end of the 18-hour incubation period. […] Note, however, that such changes occur rapidly after withdrawal of the inhibitors (compare to time course detailed in FIGS. 12A and B and FIGS. 14A-H). [Magnification: 9100×].
3. Ultrastructural investigation of antiviral effect. ACH-2 cells were incubated with hypusine inhibitors (mimosine, HK-1) and induced with PMA as outlined in Example II A. Harvesting, fixation of cells, and electron microscopy were performed according to established techniques [Michael et al., J. Virol 65, 1291-1303 (1991), which is hereby incorporated by reference].

[2] = test system: deoxyhypusyl hydroxylase (DOHH); settings: previously established, Hanauske-Abel et al.; cited from earlier work
[3] = test system: cellular deoxyhypusyl hydroxylase; settings: Hanauske-Abel et al. 1994; cited from earlier work
[4] = test system: viral Gag mRNA (Rev-dependent transcripts); experiment: Polysomal localization of viral Gag mRNA in PMA-induced ACH-2 cells; type: cell-based, HIV-1; settings: 200 μM
Method: as §1

For `N[C@@H](Cn1ccc(=O)c(O)c1)C(=O)O` [L-Mimosine], the “polysomal localization of GAPDH mRNA” value (GAPDH mRNA) was “did not affect the polysomal loading of cellular MRNA; also recorded: only a marginal effect on the distribution of GAPDH mRNA”, the “cells with early apoptotic nuclear changes” value ([1]; PMA-induced ACH-2, FIG. 11B) was “about 20%” and the “number of viral particles in extracellular space” value ([1]; PMA-induced ACH-2, end of 18-hour incubation, FIG. 11B) was “marked reduction in the number of viral particles; also recorded: prominent reduction in the number of infectious particles in the extracellular space”. The “ultrastructural appearance of treated cells” value ([1]; PMA-induced ACH-2, end of incubation, FIG. 11B) was “normal ultrastructural appearance of the treated ACH-2 cells; also recorded: still lacks overt morphological signs of cell damage”, the “hypusine inhibition in cell-free system” value [2] was “act as hypusine inhibitors in this cell-free system” and the “inhibition of purified and cellular deoxyhypusyl hydroxylase” value [3] was “inhibit purified and cellular deoxyhypusyl hydroxylase”. The “polysomal localization of viral Gag mRNA” value ([4]; FIG. 6) was “redirects a significant portion of the Rev-dependent Gag mRNAs into the non-polysomal fractions” and the “polysomal localization of viral Gag mRNA” value ([4]; FIG. 6, listed as minosine) was “shifted away from the polysomal protein producing machinery into the pool of monosomal/free MRNA”.
